Source: ChEMBL document CHEMBL4699582, “Discovery of OATD-01, a First-in-Class Chitinase Inhibitor as Potential New Therapeutics for Idiopathic Pulmonary Fibrosis” (J Med Chem, 2020)

Experiments:
[1] = target: Acidic mammalian chitinase (Homo sapiens, UniProt Q9BZP6); test: Inhibition of full-length C-terminal his-tagged human AMCase expressed in CHO-K1 cells assessed as reduction in chitinolytic activity using 4-methylumbelliferyl-beta-D-N,N-diacetylchitobioside hydrate as substrate after 60 mins by fluorometric assay; format: cell-based
[2] = target: Voltage-gated inwardly rectifying potassium channel KCNH2 (Homo sapiens, UniProt Q12809); test: Inhibition of tracer red binding to human ERG expressed in HEK293 cell membranes measured after 2 to 6 hrs by fluorescence polarization assay
[3] = target: Acidic mammalian chitinase (Mus musculus, UniProt Q91XA9); test: Inhibition of full-length C-terminal his-tagged mouse AMCase expressed in expressed in CHO-K1 cells assessed as reduction in chitinolytic activity using 4-methylumbelliferyl-beta-D-N,N'-diacetylchitobioside hydrate as substrate after 60 mins by fluorometric assay; format: cell-based
[4] = target: Chitotriosidase-1 (Mus musculus, UniProt Q9D7Q1); test: biochemical
Description: Inhibition of recombinant full-length C-terminal his-tagged mouse CHIT1 expressed in CHO-K1 cells assessed as reduction in chitinolytic activity using 4-methylumbelliferyl-beta-D-N,N',N"-triacetylchitotrioside as substrate after 60 mins by fluorometric assay

[5] = target: Chitotriosidase-1 (Homo sapiens, UniProt Q13231); format: cell-based; conditions: hek293f
Chitotriosidase-1 (Homo sapiens, UniProt Q13231), sequence (Q13231 whole entry): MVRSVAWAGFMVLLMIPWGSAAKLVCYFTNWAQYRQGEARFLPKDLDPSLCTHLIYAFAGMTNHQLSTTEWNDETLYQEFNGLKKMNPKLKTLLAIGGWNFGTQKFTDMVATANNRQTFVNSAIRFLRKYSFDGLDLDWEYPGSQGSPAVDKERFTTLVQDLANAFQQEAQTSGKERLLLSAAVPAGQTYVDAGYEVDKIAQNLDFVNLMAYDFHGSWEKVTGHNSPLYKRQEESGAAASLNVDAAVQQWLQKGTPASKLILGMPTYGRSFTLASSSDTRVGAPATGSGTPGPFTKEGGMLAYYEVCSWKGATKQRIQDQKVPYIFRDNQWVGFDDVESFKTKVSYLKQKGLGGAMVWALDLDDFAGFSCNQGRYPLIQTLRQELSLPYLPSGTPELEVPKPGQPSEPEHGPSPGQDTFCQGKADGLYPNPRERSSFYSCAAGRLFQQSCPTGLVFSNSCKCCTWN

Chitotriosidase-1 (Mus musculus, UniProt Q9D7Q1), sequence (Q9D7Q1 whole entry): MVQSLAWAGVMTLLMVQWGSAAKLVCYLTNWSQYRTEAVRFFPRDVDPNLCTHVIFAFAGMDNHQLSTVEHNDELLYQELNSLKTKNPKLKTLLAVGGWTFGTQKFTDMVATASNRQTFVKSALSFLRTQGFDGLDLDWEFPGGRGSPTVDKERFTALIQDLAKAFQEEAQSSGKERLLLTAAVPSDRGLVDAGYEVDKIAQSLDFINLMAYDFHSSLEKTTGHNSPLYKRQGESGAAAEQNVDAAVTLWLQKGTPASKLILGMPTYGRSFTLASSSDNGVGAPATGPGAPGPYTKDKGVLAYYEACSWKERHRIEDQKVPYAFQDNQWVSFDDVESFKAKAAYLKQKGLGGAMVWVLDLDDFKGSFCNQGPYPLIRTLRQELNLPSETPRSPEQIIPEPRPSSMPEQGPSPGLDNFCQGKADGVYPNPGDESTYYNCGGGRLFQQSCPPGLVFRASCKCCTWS
Acidic mammalian chitinase (Mus musculus, UniProt Q91XA9), sequence (Q91XA9 whole entry): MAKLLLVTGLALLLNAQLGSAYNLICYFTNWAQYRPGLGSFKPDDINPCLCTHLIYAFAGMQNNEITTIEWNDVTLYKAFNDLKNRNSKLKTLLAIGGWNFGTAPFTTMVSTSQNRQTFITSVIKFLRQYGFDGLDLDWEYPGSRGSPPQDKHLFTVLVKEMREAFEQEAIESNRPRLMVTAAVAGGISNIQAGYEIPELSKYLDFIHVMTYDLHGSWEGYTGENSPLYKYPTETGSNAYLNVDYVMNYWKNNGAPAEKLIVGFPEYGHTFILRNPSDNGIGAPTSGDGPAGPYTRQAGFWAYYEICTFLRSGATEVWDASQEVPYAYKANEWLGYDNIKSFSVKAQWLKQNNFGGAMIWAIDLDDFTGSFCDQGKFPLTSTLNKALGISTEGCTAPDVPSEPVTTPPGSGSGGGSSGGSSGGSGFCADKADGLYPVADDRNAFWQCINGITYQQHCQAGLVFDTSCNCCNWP
Voltage-gated inwardly rectifying potassium channel KCNH2, sequence (Q12809 whole entry): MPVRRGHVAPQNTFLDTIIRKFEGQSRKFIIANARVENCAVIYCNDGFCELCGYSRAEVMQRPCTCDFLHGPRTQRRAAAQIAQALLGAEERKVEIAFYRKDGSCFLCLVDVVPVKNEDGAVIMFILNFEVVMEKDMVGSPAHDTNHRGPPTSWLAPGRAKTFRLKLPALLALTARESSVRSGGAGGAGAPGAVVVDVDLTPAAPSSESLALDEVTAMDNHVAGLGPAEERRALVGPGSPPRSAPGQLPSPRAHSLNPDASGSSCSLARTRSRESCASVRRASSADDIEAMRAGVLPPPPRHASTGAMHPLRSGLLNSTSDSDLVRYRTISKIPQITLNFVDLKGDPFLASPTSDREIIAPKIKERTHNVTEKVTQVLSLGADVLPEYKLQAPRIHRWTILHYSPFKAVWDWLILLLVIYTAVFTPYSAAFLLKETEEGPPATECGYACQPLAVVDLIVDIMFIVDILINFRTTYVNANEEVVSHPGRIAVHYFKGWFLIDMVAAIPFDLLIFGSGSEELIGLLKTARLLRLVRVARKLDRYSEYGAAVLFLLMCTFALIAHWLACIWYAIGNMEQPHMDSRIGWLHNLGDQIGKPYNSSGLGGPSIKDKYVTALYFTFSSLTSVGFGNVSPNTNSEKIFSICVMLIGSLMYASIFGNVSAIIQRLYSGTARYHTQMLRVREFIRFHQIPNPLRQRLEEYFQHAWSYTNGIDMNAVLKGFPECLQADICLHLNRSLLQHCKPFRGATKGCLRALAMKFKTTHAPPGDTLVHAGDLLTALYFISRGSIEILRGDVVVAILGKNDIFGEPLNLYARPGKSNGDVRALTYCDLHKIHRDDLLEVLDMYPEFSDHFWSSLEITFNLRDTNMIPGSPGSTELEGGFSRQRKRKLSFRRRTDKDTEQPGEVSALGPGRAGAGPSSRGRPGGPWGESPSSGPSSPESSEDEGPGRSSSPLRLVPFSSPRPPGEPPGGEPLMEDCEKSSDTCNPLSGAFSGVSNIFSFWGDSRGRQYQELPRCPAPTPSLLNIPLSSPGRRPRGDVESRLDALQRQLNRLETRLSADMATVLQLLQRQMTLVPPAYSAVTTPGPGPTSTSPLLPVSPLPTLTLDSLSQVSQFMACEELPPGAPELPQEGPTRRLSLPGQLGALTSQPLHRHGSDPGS
Acidic mammalian chitinase (Homo sapiens, UniProt Q9BZP6), sequence (Q9BZP6 whole entry): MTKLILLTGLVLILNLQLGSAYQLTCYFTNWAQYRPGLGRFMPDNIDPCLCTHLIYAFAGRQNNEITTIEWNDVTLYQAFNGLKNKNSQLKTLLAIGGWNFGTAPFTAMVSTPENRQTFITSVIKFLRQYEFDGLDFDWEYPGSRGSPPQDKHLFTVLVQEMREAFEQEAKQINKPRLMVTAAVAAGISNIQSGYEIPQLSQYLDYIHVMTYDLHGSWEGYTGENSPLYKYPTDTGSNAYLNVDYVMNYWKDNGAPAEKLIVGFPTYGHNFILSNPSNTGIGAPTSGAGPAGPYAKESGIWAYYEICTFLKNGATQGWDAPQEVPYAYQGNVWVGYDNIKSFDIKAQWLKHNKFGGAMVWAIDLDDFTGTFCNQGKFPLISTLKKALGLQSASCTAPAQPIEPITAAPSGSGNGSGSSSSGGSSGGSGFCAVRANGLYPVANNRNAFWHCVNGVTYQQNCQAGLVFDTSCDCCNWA

| IC50 [1] [nM] | IC50 [3] [nM] | IC50 [4] [nM] | IC50 [5] | Compound | IC50 [2] [nM] | IC50 ([2]; hek293) |
| --- | --- | --- | --- | --- | --- | --- |
| 84 |  |  |  | CC(C)CN1C[C@H](Cc2ccc(Cl)cc2)N(C2CCN(c3n[nH]c(N)n3)CC2)C[C@@H]1C | 2400 |  |
|  |  |  |  | CN1CCN(C2CCN(c3nnc(N)[nH]3)CC2)[C@@H](Cc2ccc(Cl)cc2)C1 |  | Not Active |
|  | 5.5 | 29 |  | CC(C)(O)[C@H]1CN(C2CCN(c3nc(N)n[nH]3)CC2)[C@@H](Cc2ccc(Cl)cc2)CO1 |  | Not Active |
|  | 1000 | 7200 |  | C[C@@H]1CN(C2CCN(c3nnc(N)[nH]3)CC2)[C@@H](Cc2ccc(Cl)cc2)CO1 |  |  |
|  | 59 | 137 |  | Nc1nnc(N2CCC(N3Cc4ccccc4OC[C@@H]3Cc3ccc(Cl)cc3)CC2)[nH]1 | 22000 |  |
|  | 7.8 | 49 |  | CNC(=O)[C@H]1CN(C2CCN(c3nc(N)n[nH]3)CC2)[C@@H](Cc2ccc(Cl)cc2)CO1 |  | Not Active |
|  | 660 | 5300 |  | Nc1n[nH]c(N2CCC(N3CC(=O)NC[C@@H]3Cc3ccc(Cl)cc3)CC2)n1 | 80000 |  |
|  | 22000 | 27000 | Not Active | Nc1n[nH]c(N2CCC(N3CCNC(=O)[C@@H]3Cc3ccc(Cl)cc3)CC2)n1 |  |  |
|  | 3000 | 1700 |  | Nc1nnc(N2CCC(N3CCS(=O)(=O)C[C@@H]3Cc3ccc(Cl)cc3)CC2)[nH]1 |  |  |
|  | 1 | 15 |  | CC(C)C[C@H]1CN(C2CCN(c3nnc(N)[nH]3)CC2)[C@@H](Cc2ccc(Cl)cc2)CO1 | 8500 |  |
|  | 1.3 |  |  | CC[C@H]1CN(C2CCN(c3nc(N)n[nH]3)CC2)[C@@H](Cc2ccc(Cl)cc2)CO1 | 33000 |  |
|  | 2.1 | 19 |  | CC(C)[C@H]1CN(C2CCN(c3nc(N)n[nH]3)CC2)[C@@H](Cc2ccc(Cl)cc2)CO1 | 34000 |  |
|  | 7.7 | 30 |  | COC[C@H]1CN(C2CCN(c3nc(N)n[nH]3)CC2)[C@@H](Cc2ccc(Cl)cc2)CO1 | 100000 |  |
|  | 6.7 | 25 |  | Nc1nnc(N2CCC(N3C[C@H](CO)OC[C@@H]3Cc3ccc(Cl)cc3)CC2)[nH]1 | 72000 |  |
